# Test system: Hh-signalling cascade
# Assay: Inhibition of SHh-induced alkaline phosphatase in C3H10T1/2 cells (Hh-signalling cascade inhibition)
# Assay type: cell-based
# Details: Mus musculus, C3H 10T1/2, half maximal inhibition of SHh (0.3 μg/ml) stimulation of cell alkaline phosphatase
# Description: C3H10T1/2 Cells were used for identification of inhibitors of SHh-protein signaling cascade. SHh-protein activates C3H10T1/2 cells, that leads to their osteogenic differentiation [1) Kinto N., Iwamoto M., Enomoto-Iwamoto M., Noji S., Ohuchi H., Yoshioka H., Kataoka H., Wada Y., Yuhao G., Takahashi H. E., Yoshiki S., Yamaguchi A. Fibroblasts expressing Sonic hedgehog induce osteoblast differentiation and ectopic bone formation. FEBS Lett. 1997; 404(2-3): 319-23. 2) Spinella-Jaegle S., Rawadi G., Kawai S., Gallea S., Faucheu C., Mollat P., Courtois B., Bergaud B., Ramez V., Blanchet A. M., Adelmant G., Baron R., Roman-Roman S. Sonic hedgehog increases the commitment of pluripotent mesenchymal cells into the osteoblastic lineage and abolishes adipocytic differentiation. J. Cell Sci. 2001; 114(Pt 11): 2085-94] and, in particular, to expression enhancement of alkaline phosphatase enzyme.
# The cells were cultivated in DMEM medium with 10% embryonal calfish serum in incubator at 37° C., 100% humidity and 5% CO2 content. The cells were placed in 384-well plates and left for night. On the next day the tested compounds in concentration of 10 μM were added to the cells, incubated for 30 min, then recombinant (R & D Systems, USA) SHh protein in concentration of 0.3 μg/ml was added and incubation was continued for 3 days. Cells with DMSO instead of a test compound and cells without SHh protein were used as test control. For determination of the cell alkaline phosphatase activity the cells were lysed in the buffer containing 0.2% Triton-X100, lisates were incubated together with proluminescent substrate CSPD (Applied Biosystems, USA) and the resultant luminescence was measured using reader VICTOR^2V (PerkinElmer, USA).
# The ability of the compounds to inhibit Hh-signalling cascade was determined using C3H10T1/2 cells in 384-well plates as described in example 1. The compounds were added in triplicates in various concentrations, prepared by multiple dilution of starting solutions (concentration dependences of cell alkaline phosphatase inhibition induced by the addition of tested compounds are shown in FIG. 1). Activity of the compounds was characterized by their concentrations produced half maximal inhibition of stimulation of cell alkaline phosphatase SHh (IC50).
row,Structure (SMILES),IC50 [nM]
1,"COCCCNC(=O)C1CCN(C(=O)c2cc3sccc3n2Cc2ccc(F)cc2)CC1 [V-1040, 1-[4-(4-Fluorobenzyl)-4H-thieno[3,2-b]pyrrole-5-carbonyl]piperidine-4-carboxylic acid (3-methoxypropyl)amide]",< 500
2,"Cc1nn(CCCC(=O)Nc2ccc(C(C)C)cc2)c(=O)c2nn(-c3ccccc3)c(C)c12 [I-1026, 4-(2-Phenyl-3,4-dimethyl-7-oxo-2,7-dihydro-6H-pyrazolo[3,4-d]pyridazin-6-yl)-N-[(1-methylethyl)phenyl]butanamide]",< 50000
3,"CCN1CCN(C(=O)CCCn2nc(C)c3c(C)n(-c4ccc(C)cc4)nc3c2=O)CC1 [I-1024, 2-(4-Methylphenyl)-3,4-dimethyl-6-[4-(4-ethylpiperazin-1-yl)-4-oxobutyl]-2,6-dihydro-7H-pyrazolo[3,4-c]pyridazin-7-one]",< 50000
4,"COc1ccc(Cn2c(C(=O)N3CCC(C(=O)N4CCN(C)CC4)CC3)cc3sccc32)cc1 [V-1053, [4-(4-Methoxybenzyl)-4H-thieno[3,2-b]pyrrol-5-yl]-[4-(4-methylpiperazine-1-carbonyl)piperidin-1-yl]methanone]",< 500
5,"CN1CCN(C(=O)C2CCN(C(=O)c3cc4sccc4n3Cc3ccc(F)cc3)CC2)CC1 [V-1048, [4-(4-Fluorobenzyl)-4H-thieno[3,2-b]pyrrol-5-yl]-[4-(4-methylpiperazine-1-carbonyl)piperidin-1-yl]methanone]",< 500
6,"O=C(NCc1ccc(F)cc1)C1CCN(C(=O)c2cc3sccc3n2Cc2ccc(F)cc2)CC1 [V-1037, 1-[4-(4-Fluorobenzyl)-4H-thieno[3,2-b]pyrrole-5-carbonyl]piperidine-4-carboxylic acid [(4-fluorophenyl)methyl]amide]",< 50000
7,"Cc1ccc(-n2nc3c(=O)n(CC(=O)NCc4ccc(C)o4)nc(C)c3c2C)cc1 [I-1016, 2-[2-(4-Methylphenyl)-3,4-dimethyl-7-oxo-2,7-dihydro-6H-pyrazolo[3,4-d]pyridazin-6-yl]-N-[(5-methylfuran-2-yl)methyl]acetamide]",< 5000
8,"O=C(NCc1ccccn1)C1CCN(C(=O)c2cc3sccc3n2Cc2ccc(Cl)cc2)CC1 [V-1045, 1-[4-(4-Chlorobenzyl)-4H-thieno[3,2-b]pyrrole-5-carbonyl]piperidine-4-carboxylic acid [(pyridin-2-yl)methyl]amide]",< 5000
9,"COCCNC(=O)C1CCN(C(=O)c2cc3sccc3n2Cc2ccc(F)cc2)CC1 [V-1036, 1-[4-(4-Fluorobenzyl)-4H-thieno[3,2-b]pyrrole-5-carbonyl]piperidine-4-carboxylic acid (2-methoxyethyl)amide]",< 500
10,"O=C(NCCCN1CCCC1)C1CCN(C(=O)c2cc3sccc3n2Cc2ccc(F)cc2)CC1 [V-1042, 1-[4-(4-Fluorobenzyl)-4H-thieno[3,2-b]pyrrole-5-carbonyl]piperidine-4-carboxylic acid (3-N-pyrrolidinopropyl)amide]",< 500
11,"CCOCCCNC(=O)C1CCN(C(=O)c2cc3sccc3n2Cc2ccc(F)cc2)CC1 [V-1039, 1-[4-(4-Fluorobenzyl)-4H-thieno[3,2-b]pyrrole-5-carbonyl]piperidine-4-carboxylic acid (3-ethoxypropyl)amide]",< 500
12,"Cc1ccc(-n2nc3c(=O)n(CCCC(=O)NCCc4ccco4)nc(C)c3c2C)cc1 [I-1023, 4-[2-(4-Methylphenyl)-3,4-dimethyl-oxo-2,7-dihydro-6H-pyrazolo[3,4-d]pyridazin-6-yl]-N-[2-(furan-2-yl)ethyl]butanamide]",< 50000
13,"Cc1nn(C(C)C(=O)N2CCN(c3ccccc3F)CC2)c(=O)c2nn(-c3ccccc3)c(C)c12 (centres unmarked) [I-1013, 2-Phenyl-3,4-dimethyl-6-{1-methyl-2-[4-(2-fluorophenyl)piperazin-1-yl]-2-oxoethyl}-2,6-dihydro-7H-pyrazolo[3,4-d]pyridazin-7-one]",< 500
14,"Cc1ccc(-n2nc3c(=O)n(C(C)C(=O)NCCc4cccs4)nc(C)c3c2C)cc1 (centres unmarked) [I-1017, 2-[2-(4-Methylphenyl)-3,4-dimethyl-7-oxo-2,7-dihydro-6H-pyrazolo[3,4-d]pyridazin-6-yl)-N-[2-(thien-2-yl)ethyl]propanamide]",< 5000
15,"CN1CCN(C(=O)C2CCN(C(=O)c3cc4sccc4n3Cc3cccc(Cl)c3)CC2)CC1 [V-1049, [4-(3-Chlorobenzyl)-4H-thieno[3,2-b]pyrrol-5-yl]-[4-(4-methylpiperazine-1-carbonyl)piperidin-1-yl]methanone]",< 500

# Other lines, results leading:
row,IC50 [nM],Structure (SMILES)
1,> 50000,"CNC(=O)CN1C(=O)CSc2c1c(C)nn2-c1ccccc1 [II-1011, N-Methyl-2-(3-methyl-5-oxo-1-phenyl-5,6-dihydro-1H-pyrazolo[3,4-b][1,4]thiazin-4-yl)acetamide]"
2,< 500,"Cc1nn(-c2ccccc2)c2c1N(CCCC(=O)N1CCN(c3ccccc3)CC1)C(=O)CS2 [II-1023, 3-Methyl-4-[4-oxo-4-(4-phenylpiperazin-1-yl)butyl]-1-phenyl-1,4-dihydropyrazolo[3,4-b][1,4]thiazin-5-one]"
3,< 500,"COc1ccc(C(=O)Nc2cccc(-c3cn4c(C)cccc4n3)c2)cc1 [III-1019, 4-Methoxy-N-[3-(5-methylimidazo[1,2-a]pyridin-2-yl)phenyl]benzamide]"
4,> 50000,"Cc1nn(-c2ccccc2)c2c1N(CC(=O)NC(C)C)C(=O)CS2 [II-1008, N-Isopropyl-2-(3-methyl-5-oxo-1-phenyl-5,6-dihydro-1H-pyrazolo[3,4-b][1,4]thiazin-4-yl)acetamide]"
5,< 5000,"COc1ccc(NC(=O)c2ccc3c(c2)CCCN3S(=O)(=O)c2ccc(C)cc2)cc1 [VII-1014, 1-Tosyl-1,2,3,4-tetrahydroquinoline-6-carboxylic acid (4-methoxyphenyl)amide]"
6,< 500,"Cc1cccc(N2CCN(C(=O)CN3C(=O)CSc4c3c(C)nn4-c3ccccc3)CC2C)c1 (centres unmarked) [II-1001, 3-Methyl-4-[2-(3-methyl-4-m-tolylpiperazin-1-yl)-2-oxoethyl]-1-phenyl-1,4-dihydro-pyrazolo[3,4-b][1,4]thiazin-5-one]"
7,< 5000,"Cc1cccn2cc(-c3ccc(NC(=O)Cc4ccccc4)cc3)nc12 [III-1013, N-[4-(8-Methylimidazo[1,2-a]pyridin-2-yl)phenyl]-2-phenylacetamide]"
8,< 500,"Cc1ccc(NC(=O)c2ccc3c(c2)CCCN3S(=O)(=O)c2ccc(Cl)cc2)cc1C [VII-1017, 1-(4-Chlorophenylsulfonyl)-1,2,3,4-tetrahydroquinoline-6-carboxylic acid (3,4-dimethylphenyl)amide]"
9,< 5000,"CC(=O)N1CCc2c(sc(NC(=O)C3CCCCC3)c2-c2nc3ccccc3s2)C1 [VIII-1016, Cyclohexanecarboxylic acid (6-acetyl-3-benzo[d]thiazol-2-yl-4,5,6,7-tetrahydrothieno[2,3-c]pyridin-2-yl)amide]"
10,< 50000,"CC(=O)N1CCc2c(sc(NC(=O)Cc3ccccc3)c2-c2nc3ccccc3s2)C1 [VIII-1017, N-(6-Acetyl-3-benzo[d]thiazol-2-yl-4,5,6,7-tetrahydrothieno[2,3-c]pyridin-2-yl)-2-phenylacetamide]"
11,< 500,"O=C(Nc1ccc(-c2cn3ccccc3n2)cc1)c1ccncc1 [III-1003, N-(4-(Imidazo[1,2-a]pyridin-2-yl)phenyl)isonicotinamide]"
12,< 500,"O=C(Nc1cccc(-c2cn3ccccc3n2)c1)c1ccc(F)cc1 [III-1015, 4-Fluoro-N-(3-(imidazo[1,2-a]pyridin-2-yl)phenyl)benzamide]"
13,> 50000,"CC(=O)Nc1ccc(-c2cn3ccccc3n2)cc1 [III-1007, N-(4-(Imidazo[1,2-a]pyridin-2-yl)phenyl)acetamide]"
14,< 5000,"CN1CCc2c(sc(NC(=O)C3CC3)c2-c2nc3ccccc3s2)C1 [VIII-1003, Cyclopropanecarboxylic acid (3-benzo[d]thiazol-2-yl-6-methyl-4,5,6,7-tetrahydrothieno[2,3-c]pyridin-2-yl)amide]"
15,< 5000,"CCS(=O)(=O)N1CCCc2cc(C(=O)Nc3ccccc3F)ccc21 [VII-1025, 1-Ethylsulfonyl-1,2,3,4-tetrahydroquinoline-6-carboxylic acid (2-fluorophenyl)amide]"
16,< 500,"CS(=O)(=O)N1CCCc2cc(C(=O)Nc3ccc4c(c3)OCO4)ccc21 [VII-1005, 1-Methylsulfonyl-1,2,3,4-tetrahydroquinoline-6-carboxylic acid (benzo[1,3]dioxol-5-yl)amide]"

# Same assay, conditions: half maximal inhibition of SHh (0.3 μg/ml) stimulation of cell alkaline phosphatase
row,IC50 [nM],Structure (SMILES)
1,< 500,"O=C(c1cc2sccc2n1Cc1ccc(Cl)cc1)N1CCC(C(=O)N2CCCC2)CC1 [V-1044, 1-[4-(4-Chlorobenzyl)-4H-thieno[3,2-b]pyrrole-5-carbonyl]piperidine-4-carboxylic acid tetramethylenamide]"

# — US8486945B2, “Heterocyclic inhibitors of an Hh-signal cascade, medicinal compositions based thereon and methods for treating diseases caused by the aberrant activity of an Hh-signal system” (priority 2007, dated 2013)
